This is an account of results in patent US4613666A, “Neplanocin A derivatives” (Toyo Jozo Kabushiki Kaisha, priority 1980, dated 1986).

One assay deals with L 5178 Y cells. The assay is described as follows: growth-inhibitory activity on mouse lymphoma L 5178 Y cells (MIC). The note with it: 5×10^4 /ml, Fischer's medium with 10% bovine serum, 37° C., 22 hours, phenol red color change, read-out: MIC (minimum inhibitory concentration on cell growth). Format: cell-based. The procedure:
The growth-inhibitory activities of compound [I] of the present invention on L 5178 Y cells are shown below. (1) Test method:
A test sample (0.3 ml) dissolved in a medium [bovine serum (10%) in Fischer's medium] is added to a mouse lymphoma L 5178 Y cells suspension (2.7 ml, 5×10^4 /ml cells), and the mixture is incubated at 37° C. for 22 hours. Cell-growth is observed by checking the color change of phenol red in the medium. The minimum inhibitory concentration (MIC) of the substance on cell growth is defined by observing apparent growth inhibition as compared with that of control.

For assay [1] the following is noted: earlier applications cited; cited from earlier work.
A further assay concerns plant pathogenic fungi. Particulars: earlier applications cited; cited from earlier work.

≈ marks a conversion by molar mass, not a printed value.

Consider `Nc1ncnc2c1ncn2[C@@H]1C=C(CO)[C@@H](O)[C@@H]1N` [R1=H, R4=NH2, R5=H, R6=H, 2'-(R)-amino-2'-deoxy neplanocin A acetate], for which the MIC in the assay with L 5178 Y cells was 4 µg/mL.

`[N-]=[N+]=N[C@H]1[C@H](O)C(CO)=C[C@H]1n1cnc2c(N)ncnc21` [R1=H, R4=N3, R5=H, R6=H, 2'-(R)-azide-2'-deoxyneplanocin A]: the MIC in the assay with L 5178 Y cells was 100 µg/mL (≈ 347 µM).

Consider `O=C(OCC1=C[C@@H](n2cnc3c(N(C(=O)c4ccccc4)C(=O)c4ccccc4)ncnc32)[C@H](O)[C@@H]1O)c1ccccc1` [N^6,N^6,5'-Otribenzoyl neplanocin A, N^6,N^6 5'-O-tribenzoyl neplanocin A], for which the MIC in the assay with L 5178 Y cells came out at 0.16 µg/mL (≈ 0.278 µM).

For `Nc1ncnc2c1ncn2[C@@H]1C=C(CO)[C@@H](O)[C@@H]1Br` [R1=H, R4=Br, R5=H, R6=H, 2'-(R)-bromo-2'-deoxy neplanocin A], the MIC in the assay on L 5178 Y cells stood at 4 µg/mL (≈ 12.3 µM).

Regarding `CC(=O)OCC1=C[C@@H](n2cnc3c(N)ncnc32)[C@H](OC(C)=O)[C@@H]1OC(C)=O` [2',3',5'-Otriacetyl nephlanocin A, 2',3',5'-O-triacetyl neplanocin A], the MIC in the assay on L 5178 Y cells came out at 0.8 µg/mL (≈ 2.05 µM).

As to `Nc1ncnc2c1ncn2[C@@H]1C=C(CO)[C@@H](O)[C@@H]1I` [R1=H, R4=I, R5=H, R6=H, 2'-(R)-iodo-2'-deoxy neplanocin A], the MIC in the assay on L 5178 Y cells came out at 4 µg/mL (≈ 10.7 µM).

As for `Nc1ncnc2c1ncn2[C@@H]1C=C(CO)[C@@H](O)C1` [R1=H, R4=H, R5=H, R6=H, 2'-deoxy neplanocin A], in the assay on L 5178 Y cells, the MIC was 4 µg/mL (≈ 16.2 µM).

For the compound `O=C(Nc1ncnc2c1ncn2[C@@H]1C=C(COC(=O)c2ccccc2)[C@@H](O)[C@H]1O)c1ccccc1` [N^6,5'-Odibenzoyl neplanocin A, N^6,5'-O-dibenzoyl neplanocin A], in the assay with L 5178 Y cells, the MIC turned out to be 0.16 µg/mL (≈ 0.339 µM).

Take `O=C(Nc1ncnc2c1ncn2[C@@H]1C=C(CO)[C@@H](O)[C@@H]1I)c1ccccc1` [R1=COPh, R4=I, R5=H, R6=H, N^6-benzoyl-2'-(R)-iodo-2'-deoxy neplanocin A]: the MIC with L 5178 Y cells is 100 µg/mL (≈ 210 µM).

As to `Nc1ncnc2c1ncn2[C@@H]1C=C(CO)[C@@H](O)[C@@H]1Cl` [R1=H, R4=Cl, R5=H, R6=H, 2'-(R)-chloro-2'-deoxy neplanocin A], the MIC with L 5178 Y cells came out at 20 µg/mL (≈ 71 µM).

Consider `Nc1ncnc2c1ncn2[C@@H]1C=C(CO)[C@H]2OC(c3ccccc3)O[C@H]21` (some centres unmarked) [2',3'-Obenzylidene neplanocin A, 2',3'-O-benzylidene neplanocin A], for which the MIC in the assay on L 5178 Y cells was determined as 4 µg/mL (≈ 11.4 µM).

For the compound `Nc1ncnc2c1ncn2[C@@H]1C=C(CO)[C@@H](O)[C@H]1O` [Neplanocin A], the antitumor activity result in assay [1] is listed as “antitumor activity”. The “inhibitory action for plant pathogenic fungi” value in the assay with plant pathogenic fungi is given as “inhibitory action for plant pathogenic fungi”.

Take `CC(=O)OCC1=C[C@@H](n2cnc3c(N)ncnc32)[C@@H](Cl)[C@@H]1OC(C)=O` [R1=H, R4=Cl, R5=Ac, R6=Ac, 2'-(R)-chloro-2'-deoxy-3 '-O,5'-O-diacetyl neplanocin A]: the MIC in the assay on L 5178 Y cells came out at 100 µg/mL (≈ 273 µM).
